Measurements as given in patent publication US6716854B2, “Treatments for restless legs syndrome” (Pfizer, Inc., priority 2000, dated 2004).
Counter-ions that a name gives are not always drawn.

Key:
RLS patients = settings: cited from earlier work
people with RLS = settings: recent studies quoted from RLS Internet site; cited from earlier work
[1] = in vivo; cited from earlier work

In the case of N[C@@H](Cc1ccc(O)c(O)c1)C(=O)O [L-dopa], the “suppression of RLS” value (RLS patients; L-dopa 100 mg with carbidopa 10 mg, in most cases, rebound of PLMS in last part of night) is listed as “completely suppresses RLS” and the “effect on RLS at bedtime and PLMS throughout the night” value (RLS patients; administered twice at night, PSG recordings, double-blind) is listed as “significant reduction”.
For CCCN1C[C@H](CSC)C[C@@H]2c3cccc4[nH]cc(c34)C[C@H]21 [Permax®, pergolide mesylate], the “effectiveness in treating RLS relative to Sinemet” value (people with RLS) is listed as “as effective as Sinemet®” and the “potential for causing augmentation” value (people with RLS) is listed as 10%.
In the case of CCCN1C[C@H](CSC)C[C@@H]2c3cccc4[nH]cc(c34)C[C@H]21 [Pergolide], the half-life [1] is listed as 7 to 16 h.
Molecule CN[C@@H]1Cc2cccc3[nH]c(=S)n(c23)C1.O=C(O)/C=C\C(=O)O has a melting point of 195 to 196 °C.
CN[C@@H]1Cc2cccc3[nH]c(=S)n(c23)C1 showed a melting point of 210 to 213 °C.
